The text below walks through data of patent publication US7977364B2, “Indazoles, benzisoxazoles and benzisothiazoles and their use as estrogenic agents” (Laboratoire Thermamex, priority 2004, dated 2011).

For orientation: IC50 means the midpoint of a concentration-inhibition curve.

Series [1] deals with ovariectomized rats. In words: Hot flush model in vivo: tail skin temperature, uteri and body weight.
Series [2] addresses T1, purified full-length recombinant human ERα (Homo sapiens, UniProt P03372).
T1 sequence (P03372 1-595): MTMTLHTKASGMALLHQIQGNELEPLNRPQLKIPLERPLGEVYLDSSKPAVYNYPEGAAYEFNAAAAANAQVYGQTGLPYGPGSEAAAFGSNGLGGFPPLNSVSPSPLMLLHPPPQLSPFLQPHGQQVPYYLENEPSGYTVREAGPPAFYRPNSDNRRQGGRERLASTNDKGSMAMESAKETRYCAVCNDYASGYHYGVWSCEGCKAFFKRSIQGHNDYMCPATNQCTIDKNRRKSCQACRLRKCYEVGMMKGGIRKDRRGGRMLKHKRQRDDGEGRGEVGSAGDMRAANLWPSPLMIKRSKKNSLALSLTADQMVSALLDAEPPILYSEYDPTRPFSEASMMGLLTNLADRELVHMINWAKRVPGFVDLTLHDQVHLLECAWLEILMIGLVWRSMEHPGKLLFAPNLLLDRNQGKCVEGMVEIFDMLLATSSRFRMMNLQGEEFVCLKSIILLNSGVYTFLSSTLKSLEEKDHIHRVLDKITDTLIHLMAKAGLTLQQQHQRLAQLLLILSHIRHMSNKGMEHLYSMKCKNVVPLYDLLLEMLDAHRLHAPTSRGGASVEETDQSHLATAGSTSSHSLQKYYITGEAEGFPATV
Nature of the series: Estrogen receptor α competitive radiometric binding assay ([3H]-E2).
Protocol: Relative binding affinities (RBA) were determined by competitive radiometric binding assays, using purified full-length recombinant human ERα and ERβ (PanVera, Madison, Wis.). […] After shaking for a few seconds and centrifugation at 1500 g and 4° C. for 10 minutes, 150 μl/well of Optiphase ‘Super Mix’ scintillation liquid was mixed with 50 μl of supernatant of each sample and the radioactivity was measured in a MicroBeta counter (Wallac, Turku, Finland). Data were evaluated by a sigmoidal dose-response curve (Prism, GraphPad Software Inc.) to estimate the concentration of competitor at half-maximal specific binding (IC50). […] The selectivity for ERα and ERβ was obtained from the ratio R of the IC50 for ERα to the IC50 for ERβ for each test compound.

Series [3] relates to human endometrial adenocarcinoma Ishikawa cells. Nature of the series: Estrogenic and anti-estrogenic activities in vitro: induction of alkaline phosphatase (APase) activity. It counts as cell-based. An outline of the steps:
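Ishikawa cells in phenol red-free DMEM with 5% charcoal-stripped dFCS; after incubation, APase measured via 5 mM p-nitrophenyl phosphate hydrolysis at pH 9.8, read at 405 nm after 15-60 min at room temperature. EC50 (estrogenic) and IC50 (anti-estrogenic) from sigmoidal dose-response curves.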

The subject of series [4] is human breast cancer cell line MCF-7. Nature of the series: Proliferative activity in vitro (ATP luminescence, 6 days). It counts as cell-based. Conditions: Homo sapiens, MCF7, 144 h. An outline of the steps:
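Proliferative (estrogen-like) response of MCF-7 cells held in phenol red-free DMEM with 5% charcoal-stripped serum, seeded at 4.10^3 cells/well. Compounds in estrogen-free DMEM for six days at 37 °C. Viable cells by ATP luciferase luminescence as % of control; EC50 from sigmoidal dose-response curves.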

The test system of series [5] is ovariectomized rats. Conditions: rat, in vivo.

The structures appear in SMILES notation.

`Oc1ccc2c(C3CCCC3)n[nH]c2c1` [Ex 23, 3-cyclopentyl-1H-indazol-6-ol]: in the series on ovariectomized rats [1] (0.3 mg/rat/day), the “TST Variation day 1 vs day 0” value is −0.8 C. °, the “TST Variation day 4 vs day 0” value was −2.1 C. ° and the “TST Variation day 7 vs day 0” value is reported as −1.9 C. °. The “tail skin temperature of ovariectomized rat” value in the series with ovariectomized rats [1] (in words) is reported as “decreased tail skin temperature”. Moreover, in series [2], the IC50 worked out at 1330 ± 268 nM. Moreover, in series [2] (ratio of IC50s of E2 and competitor, E2 set at 100%), the “RBA (%) Mean ± S.E.M, ER α” value is 0.2 ± 0.05%. In series [3] (Homo sapiens, Ishikawa, 96 h, compound alone, four days, ND = not detected, read-out: Estrogenic activity EC50 (nM) ± S.E.M), the EC50 turned out to be 1700 ± 168 nM. Besides, the “estrogenic effect in alkaline phosphatase activity in the Ishikawa cell model” value in series [3] (in words) is listed as “weak estrogenic effect”. Moreover, the activity at 1 µM in series [4] (MCF-7, 10^−6 M, six days, read-out: Effect at 10^−6 M (% of control)) is 176%. Further, in series [4] (MCF-7, 10^−8 M, six days, read-out: Effect at 10^−8 M (% of control)), the activity at 0.01 µM was 81.7%. Besides, in series [4] (MCF-7, six days, read-out: Cell proliferation EC50 (nM) ± S.E.M), the EC50 came out at 376 ± 70.1 nM. In addition, the side-effects on uteri result with ovariectomized rats [5] is recorded as “without deleterious side-effects on uteri”.
